Measurements from patent US20240277697A1, “METHODS OF TREATING OR PREVENTING CONDITIONS ASSOCIATED WITH OPIATE WITHDRAWAL OR OPIATE RELAPSE” (Proniras Corporation, priority 2021, published 2024).
Values joined by “and” are separate entries in the source; they are usually repeats but may differ in a detail not shown here. Equal values may be shown once.

Columns and labels:
Assay type in all cases: in vivo
C57BL/6J mice = test: Mouse locomotor activity (photocell activity cages)
Protocol: Male experimentally naive C57BL/6J mice were placed into individual Omnitech photocell activity cages (28×16.5 cm) 30 min after intraperitoneal (i.p.) administration of either vehicle (n=6) or tezampanel at 10 mg/kg (n=7). Interruptions of the photocell beams (two banks of eight cells each) were then recorded for the next 30 min. Data were expressed as number of photocell interruptions.
(§1) Statistical analyses. All statistical analyses were performed using Prism 7 (GraphPad Software, La Jolla, CA, USA). Data were analyzed with analysis of variance (ANOVA) followed by the Tukey test for multiple comparisons when appropriate. To determine whether treatment with tezampanel affected oxycodone withdrawal, results with its dosage groups (i.e., chronic oxycodone+tezampanel) were compared to the chronic oxycodone+vehicle treatment group. To determine if tezampanel exerted effects by itself in non-dependent mice, results with the chronic saline+10 mg/kg tezampanel group were compared to the chronic saline+vehicle group. Student's T tests were used for analyzing locomotor activity results. Statistical significance was inferred for all tests when p<0.05.

Long-Evans hooded rats = test: Oxycodone prime-induced reinstatement of extinguished oxycodone-reinforced lever pressing in rats; conditions: for mean (S.E.M.) active lever presses during reinstatement test session: 0.1 mg/kg s.c. oxycodone prime, vehicle 35.42
Protocol: Tezampanel was tested for its ability to reduce prime-induced reinstatement of extinguished, oxycodone-reinforced lever pressing in rats. Tezampanel doses of 0 (vehicle), 3, and 10 mg/kg were solubilized in a sterile water vehicle and administered i.p. 30 min prior to testing.
Adult male Long-Evans hooded rats (Envigo, Indianapolis, IN) weighing 275-300 g upon delivery were used. When not in testing, rats were individually housed in standard plastic rodent cages in a temperature-controlled (22° C.), AAALAC-accredited facility in which they had ad libitum access to water. The rats were allowed ad libitum rat chow for at least one week prior to the commencement of training, after which they were maintained at 320 g by controlled feedings. The rats were maintained on a 12-h/12-h reversed light-dark cycle (0600-1800 lights off) for the duration of the experiment, and they were trained and tested during the dark segment of this cycle.
Oxycodone self-administration training sessions were conducted five days per week (M-F) for 3 h daily. […] For the duration of the infusion, the tone sounded, and the stimulus lights above both levers flashed at 3 Hz.
Self-administration training continued until these criteria had been met: 1) at least 12 self-administration sessions had occurred; 2) at least 15 oxycodone infusions had occurred during each of the last four sessions; 3) at least 125 lifetime oxycodone infusions had been obtained; 4) at least 50 active lever responses on the last three days of self-administration had been emitted; and 5) there were no increasing or decreasing trends in active lever responses during the last three sessions of self-administration, after which extinction training began. Subsequently, twelve 3-h daily (Mon-Sun) extinction sessions were conducted. During extinction sessions, the house light was illuminated, and the levers were extended, but infusions were not administered nor did any other scheduled stimulus change occur (i.e., neither Sonalert® activations nor stimulus light illuminations occurred). Rats were considered eligible for reinstatement testing provided that the mean number of active-lever presses during the last 3 sessions of extinction was lower than the mean number of active-lever presses during the first 3 sessions of extinction.
A six-day incubation period during which rats remained in their home cages followed extinction training. Oxycodone prime reinstatement testing immediately followed this incubation period (i.e., on the seventh day following the 12th day of extinction training). Conditions during prime reinstatement testing were identical to those during extinction except that either 3 or 10 mg/kg Tezampanel or its vehicle was administered 30 min prior to the reinstatement test session. […]

[1] = tested on: oxycodone withdrawal in mice; test: Oxycodone-precipitated (naloxone) withdrawal in mice; conditions: mice chronically administered oxycodone
Protocol: as §1
FIGS. 3A-3D show total withdrawal signs, paw tremors, jumps, and percent body weight loss, respectively. ANOVA results indicated statistically significant total number of signs [F(5,42)=33.78; p<0.0001] (FIG. 3A), paw tremors [F(5,42)=10.85; p<0.0001] (FIG. 3B), jumps [F (5, 42)=22.77; p<0.0001] (FIG. 3C) and loss of body weight [F (5, 42)=4.694; p=0.0017] (FIG. 3D).

[2] = 10 mg/kg intraperitoneal, naloxone on test day, vs oxycodone+vehicle

- No. of Interruptions (±S.E.M.) (C57BL/6J mice; 10 mg/kg intraperitoneal, 30 min before, photocell interruptions over 30 min, n=7): 663.7 ± 87.0
- locomotor activity compared to vehicle-treated group (C57BL/6J mice; 10 mg/kg intraperitoneal, naive mice, p<0.0001): significantly reduced
SMILES: O=C(O)[C@@H]1C[C@H]2C[C@@H](CCc3nn[nH]n3)CC[C@H]2CN1 [Tezampanel, (3S,4aR,6R,8aR)-6-[2-(1H-tetrazol-5-yl)ethyl]decahydroisoquinoline-3-carboxylic acid]
- observational comments on behaviour (C57BL/6J mice; 10 mg/kg dose, mice): slowed, unsteady locomotion and low activity rates
- mean (S.E.M.) active lever presses during reinstatement test session (Long-Evans hooded rats; 3 mg/kg i.p. 30 min prior): 15.55 (+3.022) and 15.55 (±3.022)
- mean (S.E.M.) active lever presses during reinstatement test session (Long-Evans hooded rats; 10 mg/kg i.p. 30 min prior): 13.00 (+2.537) and 13.00 (±2.537)
- reinstated response levels relative to vehicle-control (Long-Evans hooded rats; 3 and 10 mg/kg i.p.): significantly decreased
- reinstatement relative to last extinction session (Long-Evans hooded rats; 3 and 10 mg/kg i.p.): prevented oxycodone prime injections from eliciting effective reinstatement
- jumps [1, 2]: attenuated
- paw tremors [1, 2]: attenuated
- total number of withdrawal signs [1, 2]: attenuated
- withdrawal-induced body weight loss ([1]; at the doses tested): failed to attenuate
